Measurements published in patent publication US20220306695A1, “COMPSTATIN ANALOGUES AND THEIR MEDICAL USES” (priority 2019, published 2022).
Positions of bridges follow the written chain, without caps; N, C: chain ends. Non-standard residues stand in square brackets, D forms with d. Residues, ends and D or L forms follow the SMILES beside them. Trp(1-Me) = Cn1cc(C[C@H](N)C(=O)O)c2ccccc21; 2Nal = N[C@@H](Cc1ccc2ccccc2c1)C(=O)O; Sar = CNCC(=O)O

Legend:
[1] = test system: classical complement pathway; experiment: In vitro haemolysis assay (inhibition of classical complement pathway); type: cell-based, human; conditions: Table 3; human serum, sensitized sheep red blood cells; read-out: IC50[nM], in vitro analysis of inhibition of hemolysis
Procedure, shortened: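 Serially diluted compound (9 points) was preincubated 15 min at room temperature with diluted human serum, titrated per batch to give 70-90% maximal haemolysis, in Tris/casein buffer pH 7.4 with Mg2+/Ca2+. Antibody-sensitized sheep erythrocytes were then added for 30 min at 37° C, and the reaction was stopped with EDTA. Haemolysis was read at A405, with IC50 from 4PL fit.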

[2] = Solubility test at 10 mg/mL (visual inspection and light scattering); type: physicochemical; conditions: for Solubility, Condition 1 Acetate pH 4: 10 mg/mL compound in 100 mM acetate pH 4; for Solubility, Condition 2 Acetate pH 5: 10 mg/mL compound in 100 mM acetate pH 5; for Solubility, Condition 3 Phosphate pH 6: 10 mg/mL compound in 100 mM phosphate pH 6; for Solubility, Condition 4 Phosphate pH 7: 10 mg/mL compound in 100 mM phosphate pH 7; for Solubility, Condition 5 Phosphate pH 7.5: 10 mg/mL compound in 100 mM phosphate pH 7.5
Experimental: The solubility of compounds was assessed by measuring light scattering over a pH interval from pH 4 to pH 7.5.
Compounds were dissolved in a stock solution of 20 mg/mL in H2O at pH 2.5 or pH 10.
These stock solutions were diluted 1:1 with 200 mM buffered solution to reach a final solution of 10 mg/mL compound in 100 mM buffer. The 5 investigated conditions were (1) acetate pH 4.0, (2) acetate pH 5.0, (3) phosphate pH 6.0, (4) phosphate pH 7 and (5) phosphate pH 7.5.
Visual inspection included manually checking the 96 well plate for wells that are clear or non-clear. In addition to this a picture of the 96 well plate is taken.
Absorbance was measured at four wavelengths: 280 nm, 325 nm, 340 nm and 360 nm in an UV transparent 96 well microplate in a SpectraMax 190 microplate reader (Molecular Devices).
The criteria for this was a combination of visual inspection and light scattering not exceeding 0.1 AU, where values below 0.1 AU are good in visually clear samples. […]

## CC[C@H](C)[C@H](NC(C)=O)C(=O)N[C@H]1CSSC[C@@H](C(=O)N[C@H](C(=O)NCC(=O)N[C@@H](C)C(=O)N[C@@H](CCC(=O)O)C(=O)N[C@@H](CO)C(N)=O)[C@@H](C)O)NC(=O)[C@H](CCCNC(=N)N)NC(=O)[C@H](Cc2c[nH]cn2)NC(=O)[C@H](CCC(=O)O)NC(=O)CNC(=O)[C@H](Cc2c[nH]c3ccccc23)NC(=O)[C@H](CC(=O)O)NC(=O)[C@H](CCC(N)=O)NC(=O)[C@H](Cc2ccc3ccccc3c2)NC(=O)[C@H]([C@@H](C)CC)NC1=O [Compound 52] (Ac-ICI[2Nal]QDWGEHRCTGAES-NH2; disulfide 2-12)
[1]
  IC50: < 100 nM
[2]
  Solubility, Condition 1 Acetate pH 4: − (denotes lack of solubility at the given condition, as UV absorbance at 340 nm exceeds 0.1 AU and/or it is visibly turbid or contains particles.)
  Solubility, Condition 2 Acetate pH 5: − (denotes lack of solubility at the given condition, as UV absorbance at 340 nm exceeds 0.1 AU and/or it is visibly turbid or contains particles.)
  Solubility, Condition 3 Phosphate pH 6: + (denotes solubility at the given condition, as determined by UV absorbance being less than 0.1 AU at 340 nm and the sample being clear when manually inspected.)
  Solubility, Condition 4 Phosphate pH 7: + (denotes solubility at the given condition, as determined by UV absorbance being less than 0.1 AU at 340 nm and the sample being clear when manually inspected.)
  Solubility, Condition 5 Phosphate pH 7.5: + (denotes solubility at the given condition, as determined by UV absorbance being less than 0.1 AU at 340 nm and the sample being clear when manually inspected.)

## CC[C@H](C)[C@H](NC(=O)[C@H](C)NC(=O)[C@H](CO)NC(=O)[C@H](CO)NC(=O)[C@H](CCC(=O)O)NC(C)=O)C(=O)N[C@H]1CSSC[C@@H](C(=O)N[C@H](C(=O)NCC(=O)N[C@@H](C)C(=O)N[C@@H](CCC(=O)O)C(=O)N[C@@H](CO)C(N)=O)[C@@H](C)O)NC(=O)[C@H](CCCNC(=N)N)NC(=O)[C@H](Cc2c[nH]cn2)NC(=O)[C@H](CCC(=O)O)NC(=O)CNC(=O)[C@H](Cc2c[nH]c3ccccc23)NC(=O)[C@H](CC(=O)O)NC(=O)[C@H](CCC(N)=O)NC(=O)[C@H](Cc2c[nH]c3ccccc23)NC(=O)[C@H]([C@@H](C)CC)NC1=O [Compound 14] (Ac-ESSAICIWQDWGEHRCTGAES-NH2; disulfide 6-16)
[1]
  IC50: < 100 nM
[2]
  Solubility, Condition 1 Acetate pH 4: + (denotes solubility at the given condition, as determined by UV absorbance being less than 0.1 AU at 340 nm and the sample being clear when manually inspected.)
  Solubility, Condition 2 Acetate pH 5: − (denotes lack of solubility at the given condition, as UV absorbance at 340 nm exceeds 0.1 AU and/or it is visibly turbid or contains particles.)
  Solubility, Condition 3 Phosphate pH 6: − (denotes lack of solubility at the given condition, as UV absorbance at 340 nm exceeds 0.1 AU and/or it is visibly turbid or contains particles.)
  Solubility, Condition 4 Phosphate pH 7: + (denotes solubility at the given condition, as determined by UV absorbance being less than 0.1 AU at 340 nm and the sample being clear when manually inspected.)
  Solubility, Condition 5 Phosphate pH 7.5: + (denotes solubility at the given condition, as determined by UV absorbance being less than 0.1 AU at 340 nm and the sample being clear when manually inspected.)

## CC[C@H](C)[C@@H]1NC(=O)[C@@H](NC(=O)[C@H](Cc2ccccc2)NC(=O)[C@H](C)NC(=O)[C@H](CO)NC(=O)CNC(=O)[C@H](CCC(=O)O)NC(C)=O)CSSC[C@@H](C(=O)N(C)CC(=O)N[C@@H](CCC(=O)O)C(N)=O)NC(=O)[C@H](CCCNC(=N)N)NC(=O)[C@H](Cc2c[nH]cn2)NC(=O)[C@H](CCC(=O)O)NC(=O)CNC(=O)[C@H](Cc2c[nH]c3ccccc23)NC(=O)[C@H](CC(=O)O)NC(=O)[C@H](CCC(N)=O)NC(=O)[C@H](Cc2c[nH]c3ccccc23)NC1=O [Compound 45] (Ac-EGSAFCIWQDWGEHRC[Sar]E-NH2; disulfide 6-16)
[1]
  IC50: < 100 nM
[2]
  Solubility, Condition 1 Acetate pH 4: − (denotes lack of solubility at the given condition, as UV absorbance at 340 nm exceeds 0.1 AU and/or it is visibly turbid or contains particles.)
  Solubility, Condition 2 Acetate pH 5: + (denotes solubility at the given condition, as determined by UV absorbance being less than 0.1 AU at 340 nm and the sample being clear when manually inspected.)
  Solubility, Condition 3 Phosphate pH 6: + (denotes solubility at the given condition, as determined by UV absorbance being less than 0.1 AU at 340 nm and the sample being clear when manually inspected.)
  Solubility, Condition 4 Phosphate pH 7: + (denotes solubility at the given condition, as determined by UV absorbance being less than 0.1 AU at 340 nm and the sample being clear when manually inspected.)
  Solubility, Condition 5 Phosphate pH 7.5: + (denotes solubility at the given condition, as determined by UV absorbance being less than 0.1 AU at 340 nm and the sample being clear when manually inspected.)

## CC[C@H](C)[C@@H]1NC(=O)[C@@H](NC(=O)[C@H](Cc2ccccc2)NC(=O)[C@H](CCC(=O)O)NC(=O)[C@H](CO)NC(C)=O)CSSC[C@@H](C(=O)N[C@H](C(=O)N[C@@H](CCC(=O)O)C(=O)N[C@@H](C)C(N)=O)[C@@H](C)O)NC(=O)[C@H](CCCNC(=N)N)NC(=O)[C@H](Cc2c[nH]cn2)NC(=O)[C@H](CCC(=O)O)NC(=O)CN(C)C(=O)[C@H](Cc2c[nH]c3ccccc23)NC(=O)[C@H](CC(=O)O)NC(=O)[C@H](CCC(N)=O)NC(=O)[C@H](Cc2cn(C)c3ccccc23)NC1=O [Compound 77, Ac-SEFC(1)I[1-Me-Trp]QDW[Sar]EHRC(1)TEA-NH2] (Ac-SEFCI[Trp(1-Me)]QDW[Sar]EHRCTEA-NH2; disulfide 4-14)
[1]
  IC50: < 100 nM
[2]
  Solubility, Condition 1 Acetate pH 4: − (denotes lack of solubility at the given condition, as UV absorbance at 340 nm exceeds 0.1 AU and/or it is visibly turbid or contains particles.)
  Solubility, Condition 2 Acetate pH 5: − (denotes lack of solubility at the given condition, as UV absorbance at 340 nm exceeds 0.1 AU and/or it is visibly turbid or contains particles.)
  Solubility, Condition 3 Phosphate pH 6: + (denotes solubility at the given condition, as determined by UV absorbance being less than 0.1 AU at 340 nm and the sample being clear when manually inspected.)
  Solubility, Condition 4 Phosphate pH 7: + (denotes solubility at the given condition, as determined by UV absorbance being less than 0.1 AU at 340 nm and the sample being clear when manually inspected.)
  Solubility, Condition 5 Phosphate pH 7.5: + (denotes solubility at the given condition, as determined by UV absorbance being less than 0.1 AU at 340 nm and the sample being clear when manually inspected.)

## CC[C@H](C)[C@@H]1NC(=O)[C@@H](NC(=O)[C@H](Cc2ccccc2)NC(=O)[C@H](CCC(=O)O)NC(=O)[C@H](CO)NC(C)=O)CSSC[C@@H](C(=O)N[C@H](C(=O)NCC(=O)N[C@@H](C)C(=O)N[C@@H](CCC(=O)O)C(=O)N[C@@H](CO)C(N)=O)[C@@H](C)O)NC(=O)[C@H](CCCNC(=N)N)NC(=O)[C@H](Cc2c[nH]cn2)NC(=O)[C@H](CCC(=O)O)NC(=O)CNC(=O)[C@H](Cc2c[nH]c3ccccc23)NC(=O)[C@H](CC(=O)O)NC(=O)[C@H](CCC(N)=O)NC(=O)[C@H](Cc2cn(C)c3ccccc23)NC1=O [Compound 67] (Ac-SEFCI[Trp(1-Me)]QDWGEHRCTGAES-NH2; disulfide 4-14)
[1]
  IC50: < 100 nM
[2]
  Solubility, Condition 1 Acetate pH 4: − (denotes lack of solubility at the given condition, as UV absorbance at 340 nm exceeds 0.1 AU and/or it is visibly turbid or contains particles.)
  Solubility, Condition 2 Acetate pH 5: − (denotes lack of solubility at the given condition, as UV absorbance at 340 nm exceeds 0.1 AU and/or it is visibly turbid or contains particles.)
  Solubility, Condition 3 Phosphate pH 6: + (denotes solubility at the given condition, as determined by UV absorbance being less than 0.1 AU at 340 nm and the sample being clear when manually inspected.)
  Solubility, Condition 4 Phosphate pH 7: + (denotes solubility at the given condition, as determined by UV absorbance being less than 0.1 AU at 340 nm and the sample being clear when manually inspected.)
  Solubility, Condition 5 Phosphate pH 7.5: + (denotes solubility at the given condition, as determined by UV absorbance being less than 0.1 AU at 340 nm and the sample being clear when manually inspected.)
